# Measured values taken from article PMC11056994, “Potentiating Activity of GmhA Inhibitors on Gram-Negative Bacteria” (Journal of Medicinal Chemistry, 2024).
# Like-named read-outs stand apart in the source and are kept apart here.
# Experiments:
# E. coli C7 gmhA- = experiment: Complementation of E. coli C7-gmhA- by H7P (LPS SDS-PAGE, UhpT transport); type: cell-based
# Experimental: Figure S3: Role of UhpT phospho-sugar transporter in the transport of D-glycero-D-manno-heptose
# 7-phosphate (H7P). Complementation of E. coli C7-gmhA- by the GmhA product H7P. Silver-stained
# LPS SDS-PAGE of E. coli C7 WT (lane 1) or gmhA- (lanes 2 -4). Culture in presence of 300 µM H7P (lane
# 100 µM glucose -6-phosphate (G6P) allows a strong transport of H7P, as evidenced by the restoration
# (1 picture or pasted object on this page, not shown here)
# E. coli C7 (O18:K1:H7) [1] = experiment: MIC determination of antibiotics combined with a GmhA inhibitor; type: cell-based; details: Escherichia coli, n = 1
# Experimental: (§1) The compound to be tested was diluted in 50 mM HEPES buffer (pH 7.4) from 10 mM stock solution in DMSO. Five microliters of compound dilution or buffer were distributed in a sterile clear round-bottom 96-well polystyrene microplate (Corning). Five microliters of serial 2-fold dilutions of reference antibiotics [Erythromycin (Fluka), Rifampicin (Fluka)] in DMSO were added. An exponentially growing preculture of E. coli C7 (O18:K1:H7) in LB was diluted to 10^4 cfu/mL and supplemented with 100 μM G6P, and 90 μL of this suspension were added to the microplates. After overnight incubation at 37 °C, the MIC of the antibiotics were determined for each test compound concentration as the lowest antibiotic concentration for which no bacterial pellet is visible without magnification.
# E. coli GmhA = E. coli GmhA (Escherichia coli, UniProt P63224); type: biochemical; details: for IC50: E. coli GmhA, luminescence assay, mean ± SD of at least 3 independent experiments
# Chain of E. coli GmhA (P63224 whole entry): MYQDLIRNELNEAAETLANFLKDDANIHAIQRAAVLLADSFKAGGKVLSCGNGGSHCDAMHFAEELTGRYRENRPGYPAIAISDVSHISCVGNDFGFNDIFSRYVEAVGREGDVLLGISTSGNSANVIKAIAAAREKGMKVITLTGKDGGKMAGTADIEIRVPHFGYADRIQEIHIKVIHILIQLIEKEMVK
# Experimental: The assay buffer “AB” contained 50 mM HEPES, pH 7.5, 1 mM MnCl2, 25 mM KCl, 0.012% Triton-X100, 1 mM dithiothreitol (DTT), and 0.1 μM myelin basic protein (MBP, Sigma, ref M1891). The following components were added in a white polystyrene Costar plate up to a final volume of 30 μL: 10 μL of inhibitor dissolved in DMSO/water 50/50 and 20 μL of GmhA of E. coli in AB. After 30 min of preincubation at room temperature, 30 μL of the substrate mixture in AB were added in each well to give a final volume of 60 μL. […] After 30 min of incubation at room temperature, 100 μL of the revelation mix were added to a final volume of 160 μL, including the following constituents at the respective final concentrations: 10,000 light units/mL luciferase (Sigma), 20 μM D-luciferin (Sigma), and 100 μM N-acetylcysteamine (Aldrich). Luminescence intensity was immediately measured on a Luminoskan instrument (Thermofisher) and converted into inhibition percentages. For IC50 determinations, the inhibitor was tested at 6 to 10 different concentrations, and the related inhibitions were fitted using XLFit 5 (IDBS) to a classical Langmuir equilibrium model with Hill slope, according to the equation: %inhibition = 100 c^n/(c^n + IC50^n), where c is the compound concentration and n is the Hill coefficient.
# [2] = test system: E. coli C7 (018:K1:H7) LPS biosynthesis; experiment: Inhibition of bacterial LPS biosynthesis (silver-stained LPS SDS-PAGE); type: cell-based; details: for EC50: Escherichia coli
# Experimental: The compounds to be tested were prepared in deionized water/DMSO (50/50) solutions and added (25 μL) in sterile culture microtubes. The test bacterial isolate was isolated on tryptic soy agar (TSA) overnight. Isolated colonies were cultured in 10 mL of LB medium at 37 °C up to an OD of typically 0.15. These exponentially growing bacteria were finally diluted to 5 × 10^5 cfu/mL and added in each well (225 μL) for incubation with the compounds at 37 °C for approximately 5 h, up to an OD of ≈0.2–0.4. Some test compounds, e.g., phospho-sugars are actively transported into the bacterial cytosol via the phospho-sugar transporter UhpT (Figure S3). 2.5 μL portion of a 10 mM water solution of glucose-6-phosphate (G6P, 100 μM final concentration, from Sigma) was added in the culture tube in order to induce UhpT expression. LPS extraction: Bacterial cultures were normalized via OD determination, pelleted, and washed with 1 mL of phosphate-buffered-saline (PBS). The pellets were then denatured for 10 min at 95–100 °C in 50 μL of 0.2% sodium dodecyl sulfate (SDS), β-mercaptoethanol 1%, glycerol 36%, Tris 30 mM, pH 7.4, and bromophenol blue 0.001%. Samples were cooled down to room temperature, supplemented with 1.5 μL of proteinase K at 20 mg/mL, incubated for 1 h at 55 °C, and centrifuged for 30 min at 13,000 rpm at 25 °C. The resulting supernatant, containing LPS, was finally analyzed by SDS-PAGE electrophoresis. LPS SDS-PAGE electrophoresis: Polyacrylamide gels (16%/4% acrylamide for separation and concentration, respectively) were prepared, loaded with 8 μL of LPS extracts, and migrated. Silver staining: Gels were incubated overnight in 5% acetic acid/40% ethanol/deionized water, treated by 1% periodic acid/5% acetic acid for 15 min, washed 4 times for 10 min in deionized water, and finally incubated for 18 min in the dark in a silver nitrate solution composed of 56 mL of 0.1 M NaOH (56 mL), 33% aq ammonia (4 mL), 5% AgNO3 (45 mL), and deionized water (195 mL). Gels were then washed extensively in deionized water for 30 min and incubated for 10–15 min (up to LPS band appearance) in the revelation mix composed of 300 mL of deionized water (300 mL), 36.5% formaldehyde (0.3 mL, Fluka), and 2.3 M citric acid (0.1 mL). The revelation was stopped by incubating the gels in 10% acetic acid for 5 min. Gels were finally washed in deionized water, numerized with a Samsung PL51 camera, and analyzed by ImageJ software. The percentage of inhibition of LPS heptosylation was defined as the relative area of the Re-LPS band compared to the cumulated areas of Re-LPS and Core-LPS bands.
# GmhA = test system: GmhA; parameters: method as in PMID 21922563; details: cited from earlier work
# wild-type E. coli strain = test system: wild-type E. coli strain; parameters: method as in PMID 21922563; details: cited from earlier work
# HepG2 cytotoxicity = type: cell-based; details: human; n = 2
# Experimental: HepG2 cells (LGC Promochem, ref HB-8065) in EMEM medium supplemented with fetal bovine serum (10%), Ampicillin (100 mg/L), and Streptomycin (100 mg/L) were plated on cell culture plates (Costar 3596, 2 × 10^4 cells/well) and incubated overnight at 37 °C in 5% CO2. The culture medium was then aspirated and replaced by supplemented EMEM (210 μL including 2% DMSO) containing dilutions of compounds. Plates were incubated overnight at 37 °C in 5% CO2. Cell viability was determined by the Celltiter Aqueous One Cell Proliferation Assay (G3581–80, Promega) according to the manufacturer’s recommendations, using a Multiskan absorption reader (490 nm).
# E. coli C7 [3] = experiment: MIC of the compounds alone on E. coli C7; type: cell-based
# Experimental: Then, we investigated the cytotoxicity and the ability of such inhibitors to potentiate the antimicrobial activity of macrolide and rifamycin antibiotics.
# as §1
# E. coli C7 [4] = experiment: Sensitization to killing by the complement of human serum; type: cell-based; details: E. coli C7 grown 5 h with 0.3 and 1 mM compound 24; in 30 min
# Experimental: The E. coli C7 wild type and gmhA-deleted strains were isolated from TSA plates and grown overnight in 10 mL of LB broth at 35 °C. […] After 5 h of incubation under shaking at 37 °C, the bacterial inoculum was adjusted to 10^5 cfu/mL in 20% LB broth mixed with 80% human serum (Biopredic) and filtered on 0.45 μm pore size membranes and used as such, or further heated for 30 min at 56 °C for complement deactivation. A volume of 250 μL of each condition was finally incubated at 37 °C in microtubes, and aliquots of 10 μL were sampled at 0, 15, 30, 60, 120, and 180 min for bacterial enumeration in duplicate.
# E. coli C7 (O18:K1:H7) [5] = experiment: Time-kill kinetics of rifampicin in combination with compound 17; type: cell-based; details: 17 300 μM alone or rifampicin 1 mg/L alone
# Experimental: Rifampicin (Fluka) was diluted in DMSO, and the compound to be tested was diluted in water from 50 mM stock solution in 50 mM HEPES buffer, pH 7.4. Ten microliter of DMSO was distributed in sterile 1.5 mL polypropylene microtubes (Eppendorf). 2.5 μL of compound dilution or water, 2.5 μL of Rifampicin or DMSO, 2.5 μL of 10 mM G6P in water (100 μM final concentration), and 230 μL of LB were added to the microtubes. E. coli C7 (O18:K1:H7) was grown in 5 mL of LB broth at 37 °C until mid-log phase. The suspension was then diluted in LB to obtain a 100× inoculum of 5 × 10^7 cfu/mL, 2.5 μL of which were added to each microtube (5 × 10^5 cfu/mL final inoculum). The microtubes were incubated at 37 °C, and aliquots of 10 μL were sampled at 0, 2, 4, 6, 8, and 24 h for bacterial enumeration in duplicate.
# [6] = antibiotic alone, E. coli C7, 100 μM G6P, read-out: MIC alone
# [7] = antibiotic combined with 100 μM 17, E. coli C7, 100 μM G6P, read-out: MIC +100 μM cpd 17
# [8] = E. coli C7 LPS biosynthesis by SDS-PAGE, mean ± SD of 3 experiments for 17 and 24, n = 1 for others, read-out: EC50
structure (smiles),measurement,setting,value
"O=C[C@@H](O)[C@@H](O)[C@H](O)[C@H](O)[C@H](O)COP(=O)(O)O [H7P, D-glycero-D-manno-heptose 7-phosphate]",LPS profile restoration in gmhA- strain,"E. coli C7 gmhA-; 300 µM H7P, without G6P (lane 3)",restores some full length LPS
same,LPS profile restoration in gmhA- strain,E. coli C7 gmhA-; H7P with UhpT induction by 100 µM glucose-6-phosphate (lane 4),full LPS profile
CC[C@H]1OC(=O)[C@H](C)[C@@H](O[C@H]2C[C@@](C)(OC)[C@@H](O)[C@H](C)O2)[C@H](C)[C@@H](O[C@@H]2O[C@H](C)C[C@H](N(C)C)[C@H]2O)[C@](C)(O)C[C@@H](C)C(=O)[C@H](C)[C@@H](O)[C@]1(C)O [Erythromycin],MIC,E. coli C7 (O18:K1:H7) [1]; [6],32 µg/mL
same,MIC,E. coli C7 (O18:K1:H7) [1]; [7],1 µg/mL
O=CN(O)C[C@@H](O)[C@H](O)[C@H](O)CCP(=O)(O)O [Compound 54],IC50,E. coli GmhA,9.2 ± 1.6 µM
same,EC50,[2],> 300 µM
COC1O[C@H]([C@H](O)COP(=O)(O)O)[C@@H](O)[C@H](O)[C@H]1O (stereo partly drawn) [methyl 7-O-phosphoryl-D-glycero-D-gluco-heptopyranoside],IC50 values (in words),GmhA,low micromolar range
same,heptosylation inhibition at 1 mM,wild-type E. coli strain,too high to demonstrate heptosylation inhibition
O=CN(O)C[C@H](O)[C@H](O)[C@H](O)CC(O)P(=O)(O)O (some centres unmarked) [Compound 41],IC50,E. coli GmhA,0.075 ± 0.009 µM
same,EC50,[2],750 µM
O=C(NO)[C@@H](O)[C@H](O)[C@H](O)[C@H](O)COP(=O)(O)O [Compound 96],GmhA inhibition IC50 (in words),E. coli GmhA,low nanomolar range
same,IC50,E. coli GmhA,0.016 ± 0.006 µM
same,concentration above which bacterial growth is affected,[2]; E. coli culture of the LPS assay,> 100 µM
same,EC50,[2]; [8],> 100 µM
O=CN(O)C[C@H](O)[C@H](O)[C@H](O)CC(F)P(=O)([O-])O.[Na+] (some centres unmarked) [Compound 76],GmhA inhibition IC50 (in words),E. coli GmhA,low nanomolar range
same,EC50,[2],76 µM
O=CN(O)C[C@H](O)[C@H](O)[C@H](O)CCP(=O)([O-])O.[Na+] [Compound 24],EC50,[2],22 ± 4 µM
same,CC50,HepG2 cytotoxicity,> 1000 µM
same,MIC,"E. coli C7 [3]; Escherichia coli, C7, read-out: MIC E. coli C7",> 1000 µM
same,MIC,"E. coli C7 [3]; compound alone, n = 2, read-out: MIC E. coli C7",>1000 µM
same,reduction of the bacterial load in 80% human serum,E. coli C7 [4],3 log
O=CN(O)C[C@H](O)[C@H](O)[C@H](O)C(O)CP(=O)(O)O (some centres unmarked) [Compound 31],IC50,E. coli GmhA,0.25 ± 0.02 µM
same,EC50,[2],590 µM
O=CN(O)C[C@H](O)[C@H](O)[C@H](O)/C=C/P(=O)(O)O [Compound 25],IC50,E. coli GmhA,0.15 ± 0.03 µM
same,EC50,[2],1300 µM
CO[C@H]1/C=C/O[C@@]2(C)Oc3c(C)c(O)c4c(O)c(c(/C=N/N5CCN(C)CC5)c(O)c4c3C2=O)NC(=O)/C(C)=C\C=C\[C@H](C)[C@H](O)[C@@H](C)[C@@H](O)[C@@H](C)[C@H](OC(C)=O)[C@@H]1C [Rifampicin],MIC,E. coli C7 (O18:K1:H7) [1]; [6],4 µg/mL
same,MIC,E. coli C7 (O18:K1:H7) [1]; [7],0.25 µg/mL
same,"effect on bacterial growth, compound alone",E. coli C7 (O18:K1:H7) [5],did not alter at all the bacterial growth
O=CN(O)C[C@H](O)[C@H](O)[C@H](O)C(O)C(O)P(=O)(O)O (some centres unmarked) [Compound 27],IC50,E. coli GmhA,2.3 ± 0.6 µM
same,EC50,[2],> 3000 µM
O=CN(O)C[C@H](O)[C@H](O)[C@H](O)CP(=O)(O)O [Compound 20],IC50,E. coli GmhA,2.2 ± 0.5 µM
same,EC50,[2]; [8],> 3000 µM
O=CN(O)C[C@H](O)[C@H](O)[C@H](O)CC(F)(F)P(=O)(O)O [Compound 84],EC50,[2],510 µM
O=CN(O)C[C@H](O)C[C@H](O)CCP(=O)(O)O [Compound 68],IC50,E. coli GmhA,3 ± 0.2 µM
same,EC50,[2]; [8],1200 µM
